Laboratory results: ChEMBL document CHEMBL5113376, “Antimalarial application of quinones: A recent update” (Eur J Med Chem, 2021)
pIC50: −log10 of the molar value. In brackets after ≈: the same amount, converted by molar mass. Blank lines part the entries; values can stand above or below the molecule they belong to.

What was measured:
Plasmodium falciparum [1] = assay: In vivo antimalarial activity against Plasmodium falciparum 3D70087/N9 infected in humanized mouse model assessed as reduction in parasitemia administered orally for 4 days measured on day 7 relative to control; format: functional; design: scale not given: the % may be the effect or the level left; conditions: route po; time 7 day
A549 = assay: Cytotoxicity against human A549 cells incubated for 24 hrs by MTT assay; format: functional
Plasmodium falciparum [2] = assay: Antimalarial activity against Plasmodium falciparum W2 incubated for 24 hrs; format: functional, organism-based; conditions: Plasmodium falciparum, W2, 24 h
[3] = Cytotoxicity against human MRC5 cells incubated for 24 hrs by MTT assay; format: toxicity, cell-based
HepG2 = assay: Cytotoxicity against human HepG2 cells incubated for 24 hrs by MTT assay; format: functional
[4] = Cytotoxicity against […] LLC-PK1 cells incubated for 24 hrs by MTT assay; format: toxicity, cell-based, Sus scrofa; conditions: pig
Plasmodium falciparum [5] = assay: Antimalarial activity against chloroquine sensitive Plasmodium falciparum RKL-2 by Giemsa staining method; format: functional, organism-based
Plasmodium falciparum [6] = assay: Antimalarial activity against chloroquine resistant Plasmodium falciparum RKL-9 by Giemsa staining method; format: functional, organism-based
Plasmodium falciparum [7] = assay: Antimalarial activity against drug resistant Plasmodium falciparum K1; format: functional, organism-based
Plasmodium falciparum [8] = assay: Antimalarial activity against Plasmodium falciparum D10; format: functional, organism-based
Plasmodium falciparum [9] = assay: Antimalarial activity against Plasmodium falciparum W2; format: functional, organism-based
[10] = Cytotoxicity against HMEC-1 cells; format: toxicity, cell-based; conditions: human
Plasmodium falciparum [11] = assay: Antimalarial activity against Plasmodium falciparum 3D7; format: functional, organism-based
Plasmodium falciparum [12] = assay: Antimalarial activity against Plasmodium falciparum 3D7 assessed as inhibition of malarial growth by measuring dead rings/schizonts at 50 ug/ml relative to control; format: functional
Plasmodium falciparum [13] = assay: Antimalarial activity against Plasmodium falciparum RKL-2; format: functional, organism-based
Plasmodium falciparum [14] = assay: Antimalarial activity against Plasmodium falciparum RKL-2 assessed as inhibition of malarial growth by measuring dead rings/schizonts at 50 ug/ml relative to control; format: functional
Plasmodium falciparum [15] = assay: Antiplasmodial activity against Chloroquine resistant Plasmodium falciparum FcB1 incubated for 48 hrs by SYBR green I based fluorescence assay; format: functional, organism-based; conditions: FcB1, 48 h
Plasmodium berghei [16] = assay: In vivo plasmodial activity against Plasmodium berghei ANKA infected in Swiss mouse assessed as survival rate at 50 mg/kg, ip for 4 days after infection relative to control; format: functional; conditions: time 4 day
Plasmodium falciparum [17] = assay: Antimalarial activity against Plasmodium falciparum NF54 by 96-well microtitre plate method based scintillation counting analysis; format: functional, organism-based
Plasmodium falciparum [18] = assay: Antiplasmodial activity against Plasmodium falciparum 3D7 infected in human erythrocytes assessed as growth inhibition; format: functional, organism-based; conditions: 3D7, Erythrocyte
Plasmodium berghei [19] = assay: In vivo antiplasmodial activity against Plasmodium berghei infected in Swiss mouse assessed as reduction of parasitaemia at 100 mg/kg, po for 3 days; format: functional; design: scale not given: the % may be the effect or the level left; conditions: time 3 day
Plasmodium falciparum [20] = assay: Antimalarial activity against Chloroquine resistant blood stage Plasmodium falciparum clone W2; format: functional, organism-based
Plasmodium falciparum [21] = assay: Antimalarial activity against Plasmodium falciparum TM91C235; format: functional, organism-based
Plasmodium berghei [22] = assay: Antimalarial activity against Plasmodium berghei; format: functional, organism-based
Plasmodium falciparum [23] = assay: Antimalarial activity against Plasmodium falciparum D6; format: functional, organism-based
Plasmodium falciparum [24] = assay: Antimalarial activity against chloroquine resistant Plasmodium falciparum K1 incubated for 72 hrs by SYBR green staining based fluorescence reader method; format: functional, organism-based; conditions: K1, 72 h
[25] = Cytotoxicity against African green monkey Vero cells; format: toxicity, cell-based; conditions: chlorocebus sabaeus
[26] = Selectivity index, ratio of CC50 for african green monkey Vero cells to IC50 for Chloroquine resistant Plasmodium falciparum K1; format: toxicity; conditions: read-out: Ratio CC50/IC50
Plasmodium falciparum [27] = assay: Antimalarial activity against Plasmodium falciparum K1 by 96-well microtitre plate method based scintillation counting analysis; format: functional, organism-based; conditions: Plasmodium falciparum, K1
Plasmodium falciparum [28] = assay: Antimalarial activity against chloroquine […] Plasmodium falciparum 3D7 incubated for 72 hrs by SYBR green staining based fluorescence reader method; format: functional, organism-based; conditions: 3D7, 72 h
Plasmodium falciparum [29] = assay: Antimalarial activity against Plasmodium falciparum Dd2 by 96-well microtitre plate method based scintillation counting analysis; format: functional, organism-based
HEK293 = assay: Cytotoxicity against HEK293 cells incubated for 48 hrs by MTT assay; format: functional; conditions: Homo sapiens
Plasmodium falciparum [30] = assay: Antimalarial activity against Plasmodium falciparum; format: functional, organism-based
Plasmodium falciparum [31] = assay: Antimalarial activity against Plasmodium falciparum Dd2 treated for 48 hrs followed by hypoxanthine addition; format: functional, organism-based; conditions: Dd2, 48 h
Plasmodium berghei [32] = assay: In vivo antiplasmodial activity against Plasmodium berghei ANKA infected in CD-1 mouse assessed as decrease in parasitaemia at 50 mg/kg, ip measured after 4 days relative to control; format: functional; design: scale not given: the % may be the effect or the level left; conditions: time 4 day
Plasmodium falciparum [33] = assay: Antimalarial activity against Plasmodium falciparum Dd2 by SYBR green method; format: functional, organism-based
Plasmodium berghei [34] = assay: In vivo antiplasmodial activity against Plasmodium berghei ANKA infected in CD-1 mouse assessed as decrease in parasitaemia at 50 mg/kg, ip measured after 7 days relative to control; format: functional; design: scale not given: the % may be the effect or the level left; conditions: time 7 day
Plasmodium falciparum [35] = assay: Potency index, ratio of chloroquine IC50 to compound IC50 for antimalarial activity against Plasmodium falciparum Dd2; format: functional
Plasmodium berghei [36] = assay: In vivo antiplasmodial activity against Plasmodium berghei infected in mouse assessed as reduction of parasitaemia at 100 mg/kg/day, po for 4 days relative to control; format: functional; design: scale not given: the % may be the effect or the level left; conditions: time 4 day
Plasmodium berghei [37] = assay: In vivo antiplasmodial activity against Plasmodium berghei infected in mouse assessed as reduction of parasitaemia at 50 mg/kg/day, ip for 4 days relative to control; format: functional; design: scale not given: the % may be the effect or the level left; conditions: time 4 day
Plasmodium berghei [38] = assay: In vivo antiplasmodial activity against Plasmodium berghei infected in mouse assessed as increase in mean survival time at 50 mg/kg/day, ip for 4 days (reference value: 4 to 6 days); format: functional; conditions: time 4 day
Plasmodium falciparum [39] = assay: Antiplasmodial activity against Plasmodium falciparum K1; format: functional, organism-based
Plasmodium falciparum [40] = assay: Antimalarial activity against Plasmodium falciparum TM90C2B (2007); format: functional, organism-based
Plasmodium falciparum [41] = assay: Antimalarial activity against Plasmodium falciparum TM90C2B (1995); format: functional, organism-based

Structure (SMILES): Cc1n(C(C)C)c2c([n+]1C(C)C)C(=O)c1ccccc1C2=O.[Br-]
Activity (Plasmodium falciparum [1]): 90%

Structure (SMILES): CC(C)=CCC1=C(O)C(=O)c2ccccc2C1=O [LAPACHOL]
CC50 (A549): ≥ 285000 nM | pIC50 (Plasmodium falciparum [2]): 4.10 | CC50 at 24 h [3]: ≥ 285000 nM | CC50 (HepG2): ≥ 285000 nM | CC50 at 24 h [4]: ≥ 285000 nM

Structure (SMILES): O=C1C(O)=C(NCCNc2ccnc3cc(Cl)ccc23)C(=O)c2ccccc21
IC50 (Plasmodium falciparum [5]): 0.391 µg/mL (≈ 0.993 µM) | IC50 (Plasmodium falciparum [6]): 0.684 µg/mL (≈ 1.74 µM)

Structure (SMILES): CCCn1c2c([n+](C(C)C)c1C)C(=O)c1ccccc1C2=O
pIC50 (Plasmodium falciparum [7]): 8.49

pIC50 (Plasmodium falciparum [8]): 6.09 | pIC50 (Plasmodium falciparum [9]): 5.95
Structure (SMILES): COC1=C(Cc2ccc(OC(F)(F)F)cc2)C(=O)C2=C(NCCS2(=O)=O)C1=O
pIC50 [10]: 5.44

pIC50 (Plasmodium falciparum [11]): 6.32 | pIC50 (Plasmodium falciparum [13]): 5.86
Structure (SMILES): O=C1C(O)=C(C(Nc2cccc([N+](=O)[O-])c2)c2ccc([N+](=O)[O-])cc2)C(=O)c2ccccc21 (centres undefined)
inhibition at 50 µg/mL (Plasmodium falciparum [12]): 72.5% | inhibition at 50 µg/mL (Plasmodium falciparum [14]): 70%

Structure (SMILES): COc1cccc2c1C1=C(C(=O)C2=O)C(C)(C)C(C)O1 (centres undefined)
pIC50 (Plasmodium falciparum [15]): 6.20 | Activity (Plasmodium berghei [16]): 80%

Structure (SMILES): COc1cc(O)c(-c2c(C)cc(O)c3c2C(=O)c2cccc(O)c2C3=O)c(O)c1C(C)=O [KNIPHOLONE]
pIC50 (Plasmodium falciparum [17]): 5.77

Structure (SMILES): COC1=C2C[C@@H](C)C[C@H](OC)[C@H](O)[C@@H](C)/C=C(\C)[C@H](OC(N)=O)[C@@H](OC)/C=C\C=C(/C)C(=O)NC(=CC1=O)C2=O [GELDANAMYCIN]
pIC50 (Plasmodium falciparum [18]): 7.70

Structure (SMILES): CCCN(CCC)CC1=C(O)C(=O)c2ccccc2C1=O
Activity (Plasmodium berghei [19]): <=63% | pIC50 (Plasmodium falciparum [20]): 5.72

pIC50 (Plasmodium falciparum [21]): 6.46 | pIC50 (Plasmodium berghei [22]): 7.02 | pIC50 (Plasmodium falciparum [9]): 6.67 | pIC50 (Plasmodium falciparum [23]): 7.20
Structure (SMILES): CCCCCC[C@H](C)CC1=C(O)C(=O)c2ccccc2C1=O

Structure (SMILES): Cc1cc(O)c2c(c1)C(=O)c1cc(O)c(CN3CCN(C)CC3)c(O)c1C2=O
pIC50 (Plasmodium falciparum [24]): 5.61 | CC50 [25]: 782000 nM | selectivity ratio [26]: 315

IC50 (Plasmodium falciparum [27]): 0.751 µg/mL (≈ 1.67 µM)
Structure (SMILES): COc1cc(OC)c(-c2c(C)cc(O)c3c2C(=O)c2cccc(O)c2C3=O)c(O)c1C(C)=O

Structure (SMILES): Cc1cc(O)c2c(c1)C(=O)c1cc(O)c(CN3CCCCC3)c(O)c1C2=O
pIC50 (Plasmodium falciparum [24]): 5.64 | pIC50 (Plasmodium falciparum [28]): 5.56 | CC50 [25]: 782000 nM | selectivity ratio [26]: 315

IC50 (Plasmodium falciparum [29]): 0.8 µg/mL (≈ 2.92 µM)
Structure (SMILES): CC(C)=CCC1=C(O)C(=O)c2c(O)ccc(O)c2C1=O

Structure (SMILES): O=C1C(O)=C([C@H]2CC[C@H](c3ccc(Cl)cc3)CC2)C(=O)c2ccccc21 [ATOVAQUONE]
pIC50 (Plasmodium berghei [22]): 7.71 | pIC50 (Plasmodium falciparum [9]): 9.00 | pIC50 (Plasmodium falciparum [23]): 9.47 | CC50 (HEK293): 49 nM

pIC50 (Plasmodium falciparum [30]): 5.70
Structure (SMILES): Cc1oc2c(c1C(=O)NC(CCC(N)=O)C(=O)O)C(=O)c1ccccc1C2=O (centres undefined)

pIC50 (Plasmodium falciparum [31]): 7.34
Structure (SMILES): CC1=C(Cc2ccc(Br)cc2)C(=O)c2ccccc2C1=O
Activity (Plasmodium berghei [32]): 35.8%

Structure (SMILES): O=C1C(O)=C(CN2CC3CCC2CC3)C(=O)c2ccccc21
Activity (Plasmodium berghei [19]): <=63% | pIC50 (Plasmodium falciparum [20]): 5.89

IC50 (Plasmodium falciparum [29]): 1.63 µg/mL (≈ 6.41 µM)
Structure (SMILES): Cc1ccc2c(c1)C(=O)c1c(O)ccc(O)c1C2=O

pIC50 (Plasmodium falciparum [33]): 7.38
Structure (SMILES): CC1=C(Cc2ccc(NC(=O)OC(C)(C)C)cc2)C(=O)c2ccccc2C1=O
Activity (Plasmodium berghei [34]): 81.8% | Ratio IC50 (Plasmodium falciparum [35]): 3 | Activity (Plasmodium berghei [32]): 75.5%

Structure (SMILES): O=C(O)c1cc2c(o1)C(=O)C1=C(C2=O)S(=O)(=O)C=CN1
Activity (Plasmodium berghei [36]): 47% | Activity (Plasmodium berghei [37]): 85.7% | Time (Plasmodium berghei [38]): 9 days | pIC50 (Plasmodium falciparum [39]): 6.92

pIC50 (Plasmodium falciparum [21]): 6.64 | pIC50 (Plasmodium falciparum [40]): 6.71 | pIC50 (Plasmodium berghei [22]): 6.61 | pIC50 (Plasmodium falciparum [41]): 6.63 | pIC50 (Plasmodium falciparum [9]): 6.72 | pIC50 (Plasmodium falciparum [23]): 7.14
Structure (SMILES): CCCCCC[C@H](C)CC1=C(O)C(=O)c2c(C)cccc2C1=O

pIC50 (Plasmodium falciparum [2]): 4.80
Structure (SMILES): CC1(C)CCC2=C(O1)C(=O)c1ccccc1C2=O [ALPHA-LAPACHONE]
CC50 (A549): 2090 nM | CC50 at 24 h [3]: 2090 nM | CC50 (HepG2): 2090 nM | CC50 at 24 h [4]: 2090 nM
